Test results: US11911393B2, “Non-catalytic substrate-selective p38alpha-specific MAPK inhibitors with endothelial-stabilizing and anti-inflammatory activity, and methods of use thereof” (University of Maryland, Baltimore, priority 2016, dated 2024)

How the values were obtained:
[1] = test system: LPS-induced cytokine expression in PMA-differentiated THP1 cells; test: LPS-induced cytokine expression, PCR-based cytokine array; format: cell-based, human; conditions: 25 μM SB203580 or 10, 25, or 100 μM UM101
[2] = test system: IL-8-directed neutrophil TEM through HMVECLs; test: Neutrophil transendothelial migration (TEM) assay; format: cell-based, human; conditions: 10 μM, HMVECLs preincubated at 39.5° C. for 6 h
[3] = test system: LPS/hyperthermia-induced ALI in CD1 mice; test: Mouse i.t. LPS/FRH-induced acute lung injury model; conditions: single i.p. injection of 100-1000 μg UM101, 1000 μg UM60 or 1000 μg SB203580, 30 min before i.t. 50 μg LPS and hyperthermia

With `C[S+]([O-])c1ccc(-c2nc(-c3ccncc3)c(-c3ccc(F)cc3)[nH]2)cc1` (stereo not drawn) [SB203580, reference compound] the “LPS-stimulated genes of the array (16) whose expression was inhibited, in words” value [1] was “inhibited expression of seven”, the “reduction of hyperthermia-augmented neutrophil TEM” value [2] was 84% and the “mice that died within 24 h” value [3] was “one of six”.
